Results as given in US7179460B2, “Bacterial composition and its use” (priority 2002, dated 2007).

System: Bifidobacterium lactis PTA-4802
Assay: Antibiotic sensitivity profile (NCCLS M11-A5 agar dilution MIC)
Format: cell-based
Conditions: MRS + cysteine agar; sensitivity of strain PTA-4802 to the antibiotic

Molecule	Antibiotic Sensitivity (S/I/R)
CC1(C)S[C@@H]2[C@H](NC(=O)Cc3ccccc3)C(=O)N2[C@H]1C(=O)O [Penicillin G]	S (MIC <4 ug/ml = Sensitive (S))
Neomycin	R (MIC >64 ug/ml = Resistant (R))
Gentamicin	R (MIC >64 ug/ml = Resistant (R))
Polymyxin B	R (MIC >64 ug/ml = Resistant (R))
